# Reference: patent US10597388B2, “Pyridazinone herbicides” (FMC CORPORATION, priority 2014, dated 2020)
# Where two headings read alike, the source gives them in different places.
# Assays:
# Format in all cases: in vivo
# [1] = system: velvetleaf (Abutilon theophrasti); assay: Test A greenhouse herbicide test, pre- and postemergence; details: 240 h; for pest or weed control at 1000 g/ha: 1000 g ai/ha; for pest or weed control at 1000 g/ha / pest or weed control at 500 g/ha: 0 to 100 scale; for pest or weed control at 125 g/ha: 125 g ai/ha; for pest or weed control at 500 g/ha: 500 g ai/ha
# In short: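 Seeds in loam–sand blend received a preemergence directed soil spray; plants at 2–10 cm, one- to two-leaf stage, received postemergence sprays. Compounds in a non-phytotoxic solvent with surfactant. After about 10 d in a greenhouse, injury rated visually versus untreated controls on a 0–100 scale (100 = complete control).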
# [2] = system: wild poinsettia (Euphorbia heterophylla); assay: Test E greenhouse herbicide test, pre- and postemergence
# In short: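 Seedlings reaching 2–18 cm (1- to 4-leaf stage) received foliar treatment, while seeds in silt loam received a soil surface spray; the vehicle in each case was a non-phytotoxic solvent mixture including surfactant. Visual scoring versus controls followed 14–21 d later on a 0–100 scale.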
# [3] = system: waterhemp_RES1 (ALS & Triazine resistant common waterhemp, Amaranthus rudis); assay: Test E greenhouse herbicide test, postemergence
# Description: (§1) At the same time, plants from these crop and weed species and also waterhemp_RES1, (ALS & Triazine resistant common waterhemp, Amaranthus rudis), and waterhemp_RES2, (ALS & HPPD resistant common waterhemp, Amaranthus rudis) were planted in pots containing Redi-Earth® planting medium (Scotts Company, 14111 Scottslawn Road, Marysville, Ohio 43041) comprising spaghnum peat moss, vermiculite, wetting agent and starter nutrients were treated with postemergence applications of test chemicals formulated in the same manner. Plants ranged in height from 2 to 18 cm for postemergence treatments (1- to 4-leaf stage). Treated plants and controls were maintained in a greenhouse for 14 to 21 d, after which time all species were compared to controls and visually evaluated. Plant response ratings, summarized in Table E, are based on a scale of 0 to 100 where 0 is no effect and 100 is complete control. A dash (-) response means no test result.
# [4] = system: waterhemp_RES2 (ALS & HPPD resistant common waterhemp, Amaranthus rudis); assay: Test E greenhouse herbicide test, postemergence
# Description: as §1
# [5] = system: Canada thistle (Cirsium arvense); assay: Test D controlled growth environment herbicide test, pre- and postemergence
# In short: (§2)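 Species sown in silt loam and sprayed preemergence, or grown in peat-based medium to 2–18 cm (1- to 4-leaf stage) and sprayed postemergence, with compounds in non-phytotoxic solvent plus surfactant. Visual injury scored versus controls after 14–21 d in a controlled environment, 0 (no effect) to 100 (complete control).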
# [6] = system: geranium, cutleaf (cutleaf geranium, Geranium dissectum); assay: as above
# In short: as §2
# [7] = post-emergence, Postemergence, 0 is no effect, 100 is complete control, read-out: Velvetleaf plant response rating
# [8] = pre-emergence, Preemergence, 0 no effect, 100 complete control, read-out: Plant response rating, Velvetleaf
# [9] = 62 g ai/ha, Postemergence, scale 0 to 100 (0 no effect, 100 complete control)
# [10] = 125 g ai/ha, Postemergence, scale 0 to 100 (0 no effect, 100 complete control)
# [11] = 125 g ai/ha, Preemergence, scale 0 to 100 (0 no effect, 100 complete control)
# [12] = 250 g ai/ha, Postemergence, scale 0 to 100 (0 no effect, 100 complete control)
# [13] = Postemergence, 31 g ai/ha, visual, scale 0 no effect to 100 complete control
# [14] = Preemergence, 31 g ai/ha, scale 0 to 100, 0 no effect, 100 complete control
# [15] = Preemergence, 250 g ai/ha, visual, scale 0 no effect to 100 complete control
# [16] = 16 g ai/ha, visual, scale 0 no effect to 100 complete control
# [17] = 31 g ai/ha, visual, scale 0 no effect to 100 complete control
# [18] = 62 g ai/ha, scale 0 to 100 (0 no effect, 100 complete control)
# [19] = 125 g ai/ha, scale 0 to 100 (0 no effect, 100 complete control)
# [20] = 250 g ai/ha, scale 0 to 100 (0 no effect, 100 complete control)
# [21] = Postemergence, 31 g ai/ha, scale 0 to 100 (0 no effect, 100 complete control)
# [22] = Postemergence, 125 g ai/ha, visual rating on scale 0 (no effect) to 100 (complete control), 14 to 21 d
# [23] = Postemergence, 250 g ai/ha, scale 0 to 100 (0 no effect, 100 complete control)
# [24] = Preemergence, 125 g ai/ha, scale 0 to 100 (0 no effect, 100 complete control)
# [25] = Preemergence, 250 g ai/ha, scale 0 to 100 (0 no effect, 100 complete control)
# [26] = postemergence, 62 g ai/ha, scale 0 to 100, 0 no effect, 100 complete control
smiles,measurement,setting,value
"Cc1ccc2sc(C)c(-c3c(O)c(C)nn(C)c3=O)c2c1 [Compound 1, 4-(2,5-dimethylbenzo[b]thien-3-yl)-5-hydroxy-2,6-dimethyl-3(2H)-pyridazinone]",pest or weed control at 1000 g/ha,[1]; [7],100%
same,pest or weed control at 1000 g/ha,[1]; [8],100%
same,"Plant response rating, Poinsettia, Wild",[2]; [9],15
same,"Plant response rating, Poinsettia, Wild","[2]; 62 g ai/ha, Preemergence, scale 0 to 100 (0 no effect, 100 complete control)",30
same,"Plant response rating, Poinsettia, Wild",[2]; [10],15
same,"Plant response rating, Poinsettia, Wild",[2]; [11],30
same,"Plant response rating, Poinsettia, Wild",[2]; [12],35
same,"Plant response rating, Poinsettia, Wild","[2]; Postemergence, 16 g ai/ha, visual, scale 0 no effect to 100 complete control",5
same,"Plant response rating, Poinsettia, Wild",[2]; [13],10
same,"Plant response rating, Poinsettia, Wild","[2]; Preemergence, 16 g ai/ha, scale 0 to 100, 0 no effect, 100 complete control",20
same,"Plant response rating, Poinsettia, Wild",[2]; [14],30
same,"Plant response rating, Poinsettia, Wild",[2]; [15],35
same,"Plant response rating, Waterhemp_RES1",[3]; [16],75
same,"Plant response rating, Waterhemp_RES1",[3]; [17],80
same,"Plant response rating, Waterhemp_RES1",[3]; [18],90
same,"Plant response rating, Waterhemp_RES1",[3]; [19],98
same,"Plant response rating, Waterhemp_RES1",[3]; [20],100
same,"Plant response rating, Waterhemp_RES2",[4]; [16],0
same,"Plant response rating, Waterhemp_RES2",[4]; [17],75
same,"Plant response rating, Waterhemp_RES2",[4]; [18],70
same,"Plant response rating, Waterhemp_RES2",[4]; [19],70
same,"Plant response rating, Waterhemp_RES2",[4]; [20],75
"Cc1nn(C)c(=O)c(-c2c(C)oc3c(C)cccc23)c1O [Compound 9, 4-(2,7-dimethyl-3-benzofuranyl)-5-hydroxy-2,6-dimethyl-3(2H)-pyridazinone]",pest or weed control at 125 g/ha,"[1]; post-emergence, Postemergence, visual rating after approx. 10 d, 0 to 100 scale (0 no effect, 100 complete control), read-out: Plant response rating, Velvetleaf",0%
same,pest or weed control at 500 g/ha,[1]; [7],10%
same,pest or weed control at 125 g/ha,"[1]; pre-emergence, Preemergence, 0 to 100 scale where 0 is no effect and 100 is complete control, read-out: Velvetleaf plant response rating",0%
same,pest or weed control at 500 g/ha,[1]; [8],0%
CC(=O)Oc1c(C)nn(C)c(=O)c1-c1c(C)cc(C)c2ccccc12 [Compound 153],Canada Thistle plant response rating,[5]; [21],98
same,"Plant response rating, Canada Thistle",[5]; [22],100
same,"Plant response rating, Canada Thistle",[5]; [23],100
same,"Plant response rating (scale of 0 to 100), Canada Thistle","[5]; Preemergence, 31 g ai/ha",100
same,"Plant response rating, Canada Thistle","[5]; Preemergence, 62 g ai/ha, scale 0 to 100 (0 no effect, 100 complete control)",100
same,"Plant response rating, Canada Thistle",[5]; [24],100
same,"Plant response rating, Canada Thistle",[5]; [25],100
same,"Plant response rating, Canada Thistle",[5]; [26],98
same,"Geranium, Cutleaf plant response rating",[6]; [21],75
same,"Plant response rating, Geranium, Cutleaf",[6]; [22],90
same,"Plant response rating, Geranium, Cutleaf",[6]; [23],98
same,"Plant response rating (scale of 0 to 100), Geranium, Cutleaf","[6]; Preemergence, 31 g ai/ha",35
same,"Plant response rating (scale of 0 to 100), Geranium, Cutleaf","[6]; Preemergence, 62 g ai/ha",75
same,"Plant response rating, Geranium, Cutleaf",[6]; [24],85
same,"Plant response rating, Geranium, Cutleaf",[6]; [25],90
same,"Plant response rating, Geranium, Cutleaf",[6]; [26],90
same,"Plant response rating, Poinsettia, Wild",[2]; [9],30
same,"Plant response rating, Poinsettia, Wild",[2]; [10],50
same,"Plant response rating, Poinsettia, Wild",[2]; [11],60
same,"Plant response rating, Poinsettia, Wild",[2]; [12],75
same,"Plant response rating, Poinsettia, Wild",[2]; [13],20
same,"Plant response rating, Poinsettia, Wild",[2]; [14],40
same,"Plant response rating, Poinsettia, Wild",[2]; [15],75
same,"Plant response rating, Poinsettia, Wild","[2]; Preemergence, scale 0 to 100, 0 no effect, 100 complete control",50
same,"Plant response rating, Waterhemp_RES1",[3]; [17],50
same,"Plant response rating, Waterhemp_RES1",[3]; [19],50
same,"Plant response rating, Waterhemp_RES1",[3]; [20],60
same,"Plant response rating, Waterhemp_RES2",[4]; [17],10
same,"Plant response rating, Waterhemp_RES2",[4]; [19],30
same,"Plant response rating, Waterhemp_RES2",[4]; [20],50
